Values of other authors, collected in patent US20250339484A1, “COMPOSITION FOR BODY FAT REDUCTION CONTAINING EXTRACTS OF TARAXACUM PLATYCARPUM AND LONICERAE JAPONICA AS ACTIVE INGREDIENTS” (BOINBIO-CONVERGENCE CO., LTD., priority 2022, published 2025).

Conditions: clinical trials, about 3 g per day, after 3 months

CCCC/C=C/C=C/C=C\CCCCCCCC(=O)O [CLA, conjugated linolenic acid]
body weight reduction (average): 2.5 kg
